Each molecule was assayed against TNFα trimer (Homo sapiens, UniProt P01375) (assay: TNFα FP Competitive Binding Assay). Conditions: TNFα FP competitive binding assay; class symbols A/B/C; read-out: TNF IC50.
Procedure: TNFα FP Competitive Binding Assay
• 1. Assay Buffer: Prepare 1× Assay Buffer (Water with 47 mM HEPES, 47 mM NaCl, 0.9 mM EDTA, 0.0071% Triton X-100) by adding 25 mL of 1 M HEPES, 5 mL of 5 M NaCl, 1 mL of 0.5 M EDTA, and 375 μL of a 10% Triton X-100 stock to a fresh 500 mL bottle of water. • 2. Assay Mixture: Prepare fresh Assay Mixture containing 20 nM TNFα trimer (60 nM protein) and 1 nM 2′,7′-difluoro-3′,6′-dihydroxy-N-(2-(2-(2-((4-(isoquinolin-8-yl)-3-(4-(isoquinolin-8-yl)phenethoxy)benzyl)oxy)ethoxy)ethoxy)ethyl)-3-oxo-3H-spiro[isobenzofuran-1,9′-xanthene]-5-carboxamide probe in 1× Assay Buffer.
Compound Plate Preparation
Manual 12-point 1:3 Dilution Plates: (384 well polypropylene plates)
Top concentration of compounds, 10 mM in DMSO, dispensed in rows A-O in columns 1 and 13. Compounds are serially diluted 1:3 with DMSO in columns 2-12 or 14-24 using a 16-channel Matrix pipettor. Plates stored at −20° C.
Discovery Preps 12-point 1:3 Dilution Plates: (384 well assay plates)
Top concentration, 5 mM in DMSO, of compounds placed in rows A-O in columns 1 and 13. Compounds are serially diluted 1:3 with DMSO in columns 2-12 or 14-24. Compound solutions are dispensed into replicate assay plates at 410 nL per well. Plates stored at 4° C.
TNFα FP Competitive Binding Assay Protocol
• 1. Compound plates are warmed to rt. • 2. Fresh Assay Mixture is prepared. • 3. Assay Mixture (20 μL) is dispensed each well of 384 assay plates using a Thermo Multidrop Combi or 16-channel Matrix pipettor. If Manual 12-point 1:3 Dilution Plates are to be tested, Assay Mix is dispensed into empty plates. Discovery Preps 12-point 1:3 Dilution Plates already contain 410 nL compound solution in DMSO. • 4. For Manual 12-point 1:3 Dilution Plates, 0.7 μL is manually transferred using a 16-channel Matrix pipettor to replicate assay plates containing 20 μL Assay Mixture for a final top compound concentration of 338 μM (3.4% DMSO). • 5. For Discovery Preps 12-point 1:3 Dilution Plates, 20 μL Assay Mixture added the 410 nL compound solution already in the plates yields a final top compound concentration of 100 μM (2.0% DMSO). • 6. Background subtraction controls are wells P1-P8 containing only Assay Buffer. The low % inhibition controls are wells P9-P16 containing only Assay Mix. The high % inhibition are wells P17-P24 containing only 1 nM 2′,7′-difluoro-3′,6′-dihydroxy-N-(2-(2-(2-((4-(isoquinolin-8-yl)-3-(4-(isoquinolin-8-yl)phenethoxy)benzyl)oxy)ethoxy)ethoxy)ethyl)-3-oxo-3H-spiro[isobenzofuran-1,9′-xanthene]-5-carboxamide probe in 1× Assay Buffer. • 7. Plates are incubated at […] for 18-24 h in 37° C. incubator (CO2 is off). • 8. Prior to reading the assay, the plates are placed in a dark cabinet to equilibrate at rt for one hour. • 9. Background-subtracted fluorescence polarization (mP) is measured using a PerkinElmer Envision plate reader. • 10. Raw data is entered into Assay Explorer and dose-response curves are generated using a variable slope curve.

Chain of TNFα trimer (P01375 77-233 limits assumed): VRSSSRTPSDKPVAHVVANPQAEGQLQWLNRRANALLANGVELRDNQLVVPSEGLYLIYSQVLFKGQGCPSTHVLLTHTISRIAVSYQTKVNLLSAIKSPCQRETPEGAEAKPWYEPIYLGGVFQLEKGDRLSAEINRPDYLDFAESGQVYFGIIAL

Molecule	IC50 [µM]
OC1(c2ncc(-c3ccc4nc5n(c4c3)[C@@H](c3ccccc3)CC5)cn2)CCOCC1 [AA.1]	< 1
OC1(c2ncc(-c3ccc4nc5n(c4c3)[C@@H](c3ccccc3)CC5)cn2)CCC1 [AA.2]	< 1
OC1(c2ncc(-c3ccc4nc5n(c4c3)[C@@H](c3ccccc3)CC5)cn2)COC1 [AA.3]	< 1
CC(C)(O)c1ncc(-c2ccc3nc4n(c3n2)[C@@H](c2ccccc2)COC4)cn1 [AB.2]	< 1

Further lines, results first:

IC50 [µM]	Molecule
< 1	c1ccc([C@H]2CCc3nc4ccc(-c5ccnc(OC6CCOCC6)c5)cc4n32)cc1 [AA.4]
< 1	c1ccc([C@H]2COCc3nc4ccc(-c5cnc(N6CCOCC6)nc5)nc4n32)cc1 [AB.1]

Same assay, conditions: fluorescence polarization competition; 20 nM TNFα trimer, 1 nM OregonGreen488 probe; read-out: TNF IC50 (TNFα FP binding assay IC50)

Molecule	IC50 [µM]
c1ccc(C2COCc3nc4ccc(-c5cnc(N6CCOCC6)nc5)cc4n32)cc1 (single isomer, unassigned) [Example 21]	< 1
O=C1NCC2CN(c3ncc(-c4ccc5nc6n(c5n4)[C@@H](c4ccccc4)CC6)cn3)CCN12 (single isomer, unassigned) [Example 30]	< 1
CC(C)(O)c1ncc(-c2ccc3nc4n(c3n2)[C@](C)(c2ccccc2)CC4)cn1 [(S)-2-(5-(8-methyl-8-phenyl-7,8-dihydro-6H-pyrrolo[2′,1′:2,3]imidazo[4,5-b]pyridin-2-yl)pyrimidin-2-yl)propan-2-ol]	10 to 100
CNS(=O)(=O)c1ccc(-c2ccc3nc4n(c3c2)C(c2ccccc2)CC4)cc1 (stereo not shown) [A.1]	< 1
CCS(=O)(=O)c1ccc(-c2ccc3nc4n(c3c2)C(c2ccccc2)CC4)cc1 (stereo not shown) [A.2]	< 1
CS(=O)(=O)NCc1ccc(-c2ccc3nc4n(c3c2)C(c2ccccc2)CC4)cc1 (stereo not shown) [A.4]	< 1
CS(=O)(=O)c1ccc(-c2ccc3nc4n(c3c2)C(c2ccccc2)CC4)cc1 (stereo not shown) [A.5]	< 1
NS(=O)(=O)c1ccc(-c2ccc3nc4n(c3c2)C(c2ccccc2)CC4)cc1 (stereo not shown) [A.6]	< 1
N#CCc1ccc(-c2ccc3nc4n(c3c2)C(c2ccccc2)CC4)cc1 (stereo not shown) [A.7]	< 1
c1ccc(C2CCc3nc4ccc(-c5cnc(C6CC6)nc5)cc4n32)cc1 (stereo not shown) [A.8]	< 1
CCS(=O)(=O)c1ccc(-c2ccc3nc4n(c3c2)C(c2ccccc2)CC4)cn1 (stereo not shown) [A.9]	< 1
CN(C)C(=O)c1ccc(-c2ccc3nc4n(c3c2)C(c2ccccc2)CC4)cc1 (stereo not shown) [A.10]	< 1
Cc1cc(-c2ccc3nc4n(c3c2)C(c2ccccc2)CC4)ccn1 (stereo not shown) [A.13]	1 to 10
Cc1ccc(-c2ccc3nc4n(c3c2)C(c2ccccc2)CC4)cn1 (stereo not shown) [A.14]	1 to 10
N#CCOc1cccc(-c2ccc3nc4n(c3c2)C(c2ccccc2)CC4)c1 (stereo not shown) [A.18]	1 to 10
CN1CCN(c2ccc(-c3ccc4nc5n(c4c3)C(c3ccccc3)CC5)cn2)CC1 (stereo not shown) [A.20]	1 to 10
c1ccc(C2CCc3nc4ccc(-c5cnn(Cc6cccnc6)c5)cc4n32)cc1 (stereo not shown) [A.21]	1 to 10
c1ccc(C2CCc3nc4ccc(-c5cccnc5)cc4n32)cc1 (stereo not shown) [A.22]	1 to 10
Nc1ncc(-c2ccc3nc4n(c3c2)C(c2ccccc2)CC4)cn1 (stereo not shown) [A.23]	1 to 10
c1ccc(C2CCc3nc4ccc(-c5cncnc5)cc4n32)cc1 (stereo not shown) [A.24]	1 to 10
Cc1c(-c2ccc3nc4n(c3c2)C(c2ccccc2)CC4)cnn1C (stereo not shown) [A.28]	10 to 100
CN(C)C(=O)c1cccc(-c2ccc3nc4n(c3c2)C(c2ccccc2)CC4)c1 (stereo not shown) [A.29]	10 to 100
CS(=O)(=O)c1cncc(-c2ccc3nc4n(c3c2)C(c2ccccc2)CC4)c1 (stereo not shown) [A.31]	10 to 100
CC(C)S(=O)(=O)c1ccc(-c2ccc3nc4n(c3c2)C(c2ccccc2)CC4)cc1 (stereo not shown) [A.33]	< 1
CCNC(=O)c1ccc(-c2ccc3nc4n(c3c2)C(c2ccccc2)CC4)cc1 (stereo not shown) [A.35]	1 to 10
COc1cncc(-c2ccc3nc4n(c3c2)C(c2ccccc2)CC4)c1 (stereo not shown) [A.38]	1 to 10
COCCNC(=O)c1ccc(-c2ccc3nc4n(c3c2)C(c2ccccc2)CC4)cc1 (stereo not shown) [A.39]	1 to 10
CS(=O)(=O)NCc1cccc(-c2ccc3nc4n(c3c2)C(c2ccccc2)CC4)c1 (stereo not shown) [A.42]	1 to 10
Cn1cc(-c2ccc3nc4n(c3c2)C(c2ccccc2)CC4)ccc1=O (stereo not shown) [A.46]	10 to 100

Now from value to molecule:

IC50 [µM]	Molecule
1 to 10	1-((R)-4-(5-((R)-8-(3-(Hydroxymethyl)phenyl)-7,8-dihydro-6H-pyrrolo[2′,1′:2,3]imidazo[4,5-b]pyridin-2-yl)pyrimidin-2-yl)-2-methylpiperazin-1-yl)ethanone [Example 45]
< 1	O=C1NCC2CN(c3ncc(-c4ccc5nc6n(c5n4)C(c4ccccc4)COC6)cn3)CCN12 (stereo in doubt) [Example 58, (8aS)-7-(5-(9-Phenyl-8,9-dihydro-6H-pyrido[3′,2′:4,5]imidazo[2,1-c][1,4]oxazin-2-yl)pyrimidin-2-yl)hexahydroimidazo[1,5-a]pyrazin-3(2H)-one]
< 1	C[C@]1(c2ccccc2)CCc2nc3ccc(-c4cnc(N5CCC(O)CC5)nc4)nc3n21 [(R)-1-(5-(8-methyl-8-phenyl-7,8-dihydro-6H-pyrrolo[2′,1′:2,3]imidazo[4,5-b]pyridin-2-yl)pyrimidin-2-yl)piperidin-4-ol]
< 1	CC(C)(O)c1ncc(-c2ccc3nc4n(c3n2)[C@@](C)(c2ccccc2)CC4)cn1 [(R)-2-(5-(8-methyl-8-phenyl-7,8-dihydro-6H-pyrrolo[2′,1′:2,3]imidazo[4,5-b]pyridin-2-yl)pyrimidin-2-yl)propan-2-ol]
10 to 100	C[C@@]1(c2ccccc2)CCc2nc3ccc(-c4cnc(N5CCC(O)CC5)nc4)nc3n21 [(S)-1-(5-(8-methyl-8-phenyl-7,8-dihydro-6H-pyrrolo[2′,1′:2,3]imidazo[4,5-b]pyridin-2-yl)pyrimidin-2-yl)piperidin-4-ol]
< 1	O=S(=O)(c1ccc(-c2ccc3nc4n(c3c2)C(c2ccccc2)CC4)cc1)N1CCOCC1 (stereo not shown) [A.3]
< 1	CCN(C)C(=O)c1ccc(-c2ccc3nc4n(c3c2)C(c2ccccc2)CC4)cc1 (stereo not shown) [A.11]
1 to 10	CN(C)c1ccc(-c2ccc3nc4n(c3c2)C(c2ccccc2)CC4)cn1 (stereo not shown) [A.12]
1 to 10	CCOc1cncc(-c2ccc3nc4n(c3c2)C(c2ccccc2)CC4)c1 (stereo not shown) [A.15]
1 to 10	CSc1ccc(-c2ccc3nc4n(c3c2)C(c2ccccc2)CC4)cn1 (stereo not shown) [A.16]
1 to 10	c1ccc(C2CCc3nc4ccc(-c5ccc(N6CCNCC6)nc5)cc4n32)cc1 (stereo not shown) [A.17]
1 to 10	O=C(NC1CC1)c1ccc(-c2ccc3nc4n(c3c2)C(c2ccccc2)CC4)cc1 (stereo not shown) [A.19]
1 to 10	Cc1cncc(-c2ccc3nc4n(c3c2)C(c2ccccc2)CC4)c1 (stereo not shown) [A.25]
1 to 10	O=C(NCC1CCCO1)c1ccc(-c2ccc3nc4n(c3c2)C(c2ccccc2)CC4)cc1 (stereo not shown) [A.26]
10 to 100	Nc1ccc(-c2ccc3nc4n(c3c2)C(c2ccccc2)CC4)cn1 (stereo not shown) [A.27]
10 to 100	CS(=O)(=O)c1cccc(-c2ccc3nc4n(c3c2)C(c2ccccc2)CC4)c1 (stereo not shown) [A.30]
10 to 100	Cc1ncccc1-c1ccc2nc3n(c2c1)C(c1ccccc1)CC3 (stereo not shown) [A.32]
1 to 10	N#CCOc1ccc(-c2ccc3nc4n(c3c2)C(c2ccccc2)CC4)cc1 (stereo not shown) [A.34]
1 to 10	NC(=O)c1ccc(-c2ccc3nc4n(c3c2)C(c2ccccc2)CC4)cc1 (stereo not shown) [A.36]
1 to 10	c1ccc(C2CCc3nc4ccc(-c5ccc6c(c5)OCO6)cc4n32)cc1 (stereo not shown) [A.37]
1 to 10	CNC(=O)c1ccc(-c2ccc3nc4n(c3c2)C(c2ccccc2)CC4)cc1 (stereo not shown) [A.40]
1 to 10	N#CCc1cccc(-c2ccc3nc4n(c3c2)C(c2ccccc2)CC4)c1 (stereo not shown) [A.41]
1 to 10	CNC(=O)c1cccc(-c2ccc3nc4n(c3c2)C(c2ccccc2)CC4)c1 (stereo not shown) [A.43]
10 to 100	CCN(C)C(=O)c1cccc(-c2ccc3nc4n(c3c2)C(c2ccccc2)CC4)c1 (stereo not shown) [A.44]
10 to 100	CN(C)CCNC(=O)c1cccc(-c2ccc3nc4n(c3c2)C(c2ccccc2)CC4)c1 (stereo not shown) [A.45]
10 to 100	Cn1ccc(-c2ccc3nc4n(c3c2)C(c2ccccc2)CC4)c1 (stereo not shown) [A.47]

— patent publication US20180179198A1, “TRICYCLIC MODULATORS OF TNF SIGNALING” (AbbVie Inc., priority 2015, published 2018)
